Test results from patent US20110245159A1, “Salts, Solvates and Pharmaceutical Compositions of Macrocyclic Ghrelin Receptor Agonists and Methods of Using the Same” (priority 2009, published 2011).

What was measured:
[1] = Solubility of compound 298 salts, HPLC-CLND; details: 20 mg compound 298 + 0.5 mL aqueous acid (1.1 eq), agitated 72 h
Description: The pH of the solution was then measured and the amount of dissolved salt determined by HPLC-CLND analysis.

diabetic gastroparesis = details: unspecified formulation; cited from earlier work
GH secretion = details: animal models; cited from earlier work
[2] = humans, unspecified formulation; cited from earlier work
POI = details: unspecified formulation; cited from earlier work
[3] = rat, in vivo, sc
Description: Formulations A, B-1, B-2 and B-3 were administered to male Sprague-Dawley rats subcutaneously (sc) at a dosing volume of 5 mL/kg.
Blood was collected via the JVC into tubes containing sodium EDTA (NaEDTA) and placed on ice until centrifugation. Samples were centrifuged at 13,000 rpm for 5 min with the temperature maintained at 4° C. Plasma was separated and stored frozen on dry ice prior to analysis.
The pharmacokinetic (PK) parameters for each animal were calculated using non-compartmental modeling (extravascular input model) and WinNonlin software (version 5.2, Pharsight). The half-life (t1/2), Area Under the Concentration Versus Time Curve from time 0 to the last quantifiable point (AUC0-t) and to infinity (AUC0-∞) were calculated and the observed Cmax and Tmax tabulated for each animal and dose group. […] The terminal elimination rate constant was calculated for the purpose of obtaining the extrapolated AUC0-∞ values.

[4] = Stability testing of compound 298.HCl.H2O at storage conditions; assay type: physicochemical
Text: For determining the stability of an active pharmaceutical ingredient (API) or a pharmaceutical composition, the approach as outlined for regulatory purposes in International Conference on Harmonisation of Technical Requirements for Registration of Pharmaceuticals for Human Use (ICH) Q1A Guideline: Stability Testing of New Drug Substances and Products, February 2003, can be followed. In summary, this entails repetition of certain analytical tests on samples stored at three representative controlled conditions to ascertain whether or not any degradation or loss of potency has occurred. The typical conditions employed are: (1) 25° C.±2° C., 60%±5% relative humidity (RH); (2) 30° C.±2° C., 65%±5% RH; (3) 40° C.±2° C., 75%±5% RH (often termed accelerated stability). The photostability as outlined in International Conference on Harmonisation of Technical Requirements for Registration of Pharmaceuticals for Human Use (ICH) Q1B Guideline: Stability Testing: Photostability Testing of New Drug Substances and Products, November 1996, is typically also investigated.
The purpose of this procedure is to determine the purity of representative salts, solvates and polymorphs of the invention by reverse phase HPLC. Any appropriate detection method compatible with HPLC can be utilized, such as single or dual wavelength ultraviolet (UV) detection, evaporative light scattering detection (ELSD) or chemiluminescent nitrogen detection (CLND). For most cases, UV detection would be preferred. Purity can be determined by peak area %. The same assay conditions are used to determine the level of impurities and the potency. The parameters for this HPLC assay are delineated below.
Moisture level is determined by Karl Fischer titrimetry using the direct titration method, in accordance with USP <921 1a>.

[5] = Static hygroscopicity study; assay type: physicochemical; details: 3 months, 80% RH, 25° C.
Description: The static hygroscopicity study was performed by exposing compound 298.HCl.H2O for a period of 3 months to 80% RH humidity at 25° C. […] The sample was analyzed at 1-week, 1-month, 2-month and 3-month time points by the following methods: DSC, thermogravimetric analysis and Karl-Fischer titrimetry.

[6] = Dynamic vapor sorption/desorption (DVS) hygroscopicity; assay type: physicochemical
Description: The hygroscopicity of salts, solvates and polymorphs of the invention can be assessed by both static and dynamic hygroscopicity studies. For the latter, dynamic vapor sorption/desorption (DVS) experiments can be performed on an SGA-100 gravimetric sorption analyzer (or similar). The experimental protocol typically included full weight equilibrium at 0% RH.
The hygroscopicity of compound 298.HCl.H2O was assessed by both static and dynamic vapor sorption/desorption (DVS) experiments were performed at 25° C. according to Method 4M.

[7] = Batch 1, 25° C., 60% RH, 12 mos
[8] = Batch 1, 25° C., 60% RH, 18 mos
[9] = Batch 1, 25° C., 60% RH, 24 mos
[10] = Example 3, 25° C., 60% RH, 0 mos
[11] = Example 3, 25° C., 60% RH, 3 mos
[12] = Example 3, 25° C., 60% RH, 6 mos
[13] = Example 3, 25° C., 60% RH, 9 mos
[14] = Example 3, 25° C., 60% RH, 12 mos
[15] = Example 3, 25° C., 60% RH, 18 mos
[16] = Example 3, 40° C., 75% RH, 0 mos
[17] = Example 3, 40° C., 75% RH, 1 mos
[18] = Example 3, 40° C., 75% RH, 3 mos
[19] = Example 3, 40° C., 75% RH, 6 mos

Fumarate
pH at 72 hr [1]: 3.6

C[C@@H]1CN[C@@H](C2CC2)C(=O)N(C)[C@H](C)C(=O)N[C@H](Cc2ccc(F)cc2)C(=O)NCCCc2ccccc2O1 [compound 298]
Efficacy for the treatment of diabetic gastroparesis (diabetic gastroparesis): efficacy
Concurrent GH secretion (GH secretion): did not stimulate concurrent GH secretion
Safety and pharmacokinetic properties [2]: appropriate safety and pharmacokinetic properties
Efficacy for the treatment of POI (POI): efficacy

CC1CNC(C2CC2)C(=O)N(C)C(C)C(=O)NC(Cc2ccc(F)cc2)C(=O)NCCCc2ccccc2O1.Cl.O (stereo not drawn) [Compound 298•HCl•H2O]
AUC0-∞ dependence on dose [3]: increased proportionally with dose
Increase in Cmax with dose [3]: less than dose-proportional
HPLC Assay (% Purity) ([4]; Batch 1, 5° C., 0 mos): 100.48%
Total Impurities (%) ([4]; Batch 1, 5° C., 0 mos): 0.41%
HPLC Assay (% Purity) ([4]; Batch 1, 5° C., 3 mos): 98.72%
Total Impurities (%) ([4]; Batch 1, 5° C., 3 mos): 0.39%
HPLC Assay (% Purity) ([4]; Batch 1, 5° C., 6 mos): 98.48%
Total Impurities (%) ([4]; Batch 1, 5° C., 6 mos): 0.42%
HPLC Assay (% Purity) ([4]; Batch 1, 5° C., 9 mos): 100.78%
Total Impurities (%) ([4]; Batch 1, 5° C., 9 mos): 0.47%
HPLC Assay (% Purity) ([4]; Batch 1, 5° C., 12 mos): 98.19%
Total Impurities (%) ([4]; Batch 1, 5° C., 12 mos): 0.42%
HPLC Assay (% Purity) ([4]; Batch 1, 5° C., 18 mos): 98.68%
Total Impurities (%) ([4]; Batch 1, 5° C., 18 mos): 0.43%
HPLC Assay (% Purity) ([4]; Batch 1, 5° C., 24 mos): 100.15%
Total Impurities (%) ([4]; Batch 1, 5° C., 24 mos): 0.43%
HPLC Assay (% Purity) ([4]; Batch 1, 25° C., 60% RH, 0 mos): 100.48%
Total Impurities (%) ([4]; Batch 1, 25° C., 60% RH, 0 mos): 0.41%
HPLC Assay (% Purity) ([4]; Batch 1, 25° C., 60% RH, 1 mos): 98.99%
Total Impurities (%) ([4]; Batch 1, 25° C., 60% RH, 1 mos): 0.40%
HPLC Assay (% Purity) ([4]; Batch 1, 25° C., 60% RH, 3 mos): 98.39%
Total Impurities (%) ([4]; Batch 1, 25° C., 60% RH, 3 mos): 0.40%
HPLC Assay (% Purity) ([4]; Batch 1, 25° C., 60% RH, 6 mos): 98.81%
Total Impurities (%) ([4]; Batch 1, 25° C., 60% RH, 6 mos): 0.42%
HPLC Assay (% Purity) ([4]; Batch 1, 25° C., 60% RH, 9 mos): 100.65%
Total Impurities (%) ([4]; Batch 1, 25° C., 60% RH, 9 mos): 0.46%
HPLC Assay (% Purity) [4, 7]: 97.59%
Total Impurities (%) [4, 7]: 0.49%
HPLC Assay (% Purity) [4, 8]: 99.81%
Total Impurities (%) [4, 8]: 0.21%
HPLC Assay (% Purity) [4, 9]: 100.24%
Total Impurities (%) [4, 9]: 0.48%
HPLC Assay (% Purity) ([4]; Batch 1, 40° C., 75% RH, 0 mos): 100.48%
Total Impurities (%) ([4]; Batch 1, 40° C., 75% RH, 0 mos): 0.41%
HPLC Assay (% Purity) ([4]; Batch 1, 40° C., 75% RH, 1 mos): 98.49%
Total Impurities (%) ([4]; Batch 1, 40° C., 75% RH, 1 mos): 0.39%
HPLC Assay (% Purity) ([4]; Batch 1, 40° C., 75% RH, 3 mos): 98.22%
Total Impurities (%) ([4]; Batch 1, 40° C., 75% RH, 3 mos): 0.40%
HPLC Assay (% Purity) ([4]; Batch 1, 40° C., 75% RH, 6 mos): 98.41%
Total Impurities (%) ([4]; Batch 1, 40° C., 75% RH, 6 mos): 0.44%
HPLC Assay (% Purity) [4, 10]: 99.9%
Potency Assay (HPLC wt %) [4, 10]: 89.1 wt %
Total Impurities (%) [4, 10]: 0.06%
Water Content (%) [4, 10]: 3.9%
HPLC Assay (% Purity) [4, 11]: 99.9%
Potency Assay (HPLC wt %) [4, 11]: 90.2 wt %
Total Impurities (%) [4, 11]: 0.12%
Water Content (%) [4, 11]: 4.2%
HPLC Assay (% Purity) [4, 12]: 99.9%
Potency Assay (HPLC wt %) [4, 12]: 90.1 wt %
Total Impurities (%) [4, 12]: 0.07%
Water Content (%) [4, 12]: 4.1%
HPLC Assay (% Purity) [4, 13]: 99.9%
Potency Assay (HPLC wt %) [4, 13]: 90.5 wt %
Total Impurities (%) [4, 13]: 0.06%
Water Content (%) [4, 13]: 4.3%
HPLC Assay (% Purity) [4, 14]: 99.9%
Potency Assay (HPLC wt %) [4, 14]: 89.9 wt %
Total Impurities (%) [4, 14]: 0.06%
Water Content (%) [4, 14]: 3.1%
HPLC Assay (% Purity) [4, 15]: 99.8%
Potency Assay (HPLC wt %) [4, 15]: 89.8 wt %
Total Impurities (%) [4, 15]: 0.07%
Water Content (%) [4, 15]: 4.0%
HPLC Assay (% Purity) [4, 16]: 99.9%
Potency Assay (HPLC wt %) [4, 16]: 89.1 wt %
Total Impurities (%) [4, 16]: 0.06%
Water Content (%) [4, 16]: 3.9%
HPLC Assay (% Purity) [4, 17]: 99.8%
Potency Assay (HPLC wt %) [4, 17]: 88.4 wt %
Total Impurities (%) [4, 17]: 0.18%
Water Content (%) [4, 17]: 3.5%
HPLC Assay (% Purity) [4, 18]: 99.9%
Potency Assay (HPLC wt %) [4, 18]: 92.1 wt %
Total Impurities (%) [4, 18]: 0.12%
Water Content (%) [4, 18]: 3.7%
HPLC Assay (% Purity) [4, 19]: 99.9%
Potency Assay (HPLC wt %) [4, 19]: 89.6 wt %
Total Impurities (%) [4, 19]: 0.07%
Water Content (%) [4, 19]: 4.2%
XRPD analysis ([4]; Example 3, both storage conditions after 6 months): still consistent with the standard pattern
Appearance as a white powder ([4]; Example 3, over the 6 month period): remained unchanged
Deliquescence [5]: No deliquescence was detected
Hygroscopicity ([5]; static study): essentially non-hygroscopic
Hygroscopicity [6]: Non-hygroscopic
Hygroscopicity ([6]; DVS, 25° C.): essentially non-hygroscopic
Weight change ([6]; DVS, 25° C., 20%-90% relative humidity range): 1%
Weight loss (lattice water lost) ([6]; DVS, 25° C., equilibration at 0% RH): 2.6%
